The values that follow come from a melting point compilation (Tetko et al.).

Consider `Nc1cc2[nH]c(=O)c(C(=O)c3ccccc3)cc2cc1C=O`, for which the melting point was 278 to 279 °C. For `O=C(C(=O)c1ccc(Cl)cc1)c1ccccc1` the value was 67 °C; for `COC(=O)c1ccc(OC)c(OC)c1Cl`, 46 to 48 °C.

In turn, `COP(=O)(OC)OC(Br)C(Cl)(Cl)Br` (stereo not given) returned a melting point of 27 °C. `COC(=O)COc1ccc(Cl)cc1Cl` gave a melting point of 119 °C. As to `CC(=O)NC(=O)COC(=O)c1ccccc1`, the melting point amounted to 104 °C. For `CCOC(=O)c1c(-c2ccccc2)csc1NC(=O)c1ccccc1Cl` the value was 131 to 132 °C; for `CN1CCCN(c2ccc(C=O)cc2)CC1`, 44 to 46 °C; for `Cn1c(Cl)cc(=O)n(C)c1=O`, 110 °C. For `OCCOc1ccc(OCCO)cc1` the value was 104 to 107 °C; for `C=CCCCC=C`, -129 °C. For `CCOC(=O)c1c(C)oc2c(F)c(F)c(F)c(F)c12` the value was 70 °C; for `COC(=O)C1(S(=O)(=O)c2ccc(Cl)cc2)CC1`, 116 °C; for `CC(C)=CCCC(C)=CC=CC(C)=CC=CC(C)=CC=CC=C(C)C=CC=C(C)C=CC=C(C)CCC=C(C)C`, 175 °C.

Compound `O=C1c2ccccc2C(=O)N1CCS(=O)(=O)Cl` had a melting point of 158 °C. On to `Fc1cc(I)ccc1Br`, for which the melting point fell in the range of 36 to 41 °C.

With `COc1cc(F)c(C=O)cc1OC`, the melting point amounted to 99 °C.

`NC(=O)/C(=N\Nc1cc(Cl)ccc1Cl)c1nc2ccccc2s1` gave a melting point of 270 °C. Regarding `Oc1ccc2c(c1)C13CCCCC1C(C2)NCC3` (stereo not given), the melting point turned out to be 271 °C. `CCOC1Oc2ccc(OS(C)(=O)=O)cc2C1(C)C` (stereo not given) had a melting point of 71 °C. In turn, `NCc1cc(C(F)(F)F)ccc1N1CCOCC1` returned a melting point of 31 to 34 °C.

`Oc1c(Cl)cc(Cl)c(Cl)c1Cl` had a melting point of 70 °C. `CON=C(C(=O)NC1C(=O)N2C(C(=O)OCOC(=O)C(C)(C)C)=C(C=Cc3scnc3C)CSC12)c1csc(N)n1` (stereo not given): the melting point was 128 °C. For the compound `CCOC(=O)c1ccc(Oc2ccc(C)nn2)cc1`, the melting point lay within 70 to 73 °C. For `COc1cc2oc(=O)cc(CBr)c2cc1OC` the value was 202 °C; for `O=C(CO)CO`, 90 °C. With `CC=Cc1ccc(OCC)c(O)c1`, the melting point stood at 87 °C. For `Cc1ccc(C)c(Cl)c1` the value was 1.6 °C; for `O=C(CBr)c1cc(-c2ccc(Cl)cc2)no1`, 157 to 158 °C; for `CCC(=O)Oc1ccccc1`, 20 °C.

As to `CC(C)(C)OC(=O)N1CC[C@H]1C(=O)O`, the melting point is 105 to 110 °C. For `NCCN(CCN)N(O)N=O` the value was 98 to 106 °C; for `CSC(=NS(=O)(=O)c1ccc(Br)cc1)SC`, 100 to 105 °C; for `CCCCOCCOCCOCCO`, -30 °C.

As to `FC(F)(F)C#CC(F)(F)F`, the melting point was -117 °C. The compound `C1CCC(OC2CCCCC2)CC1` yielded a melting point of -36 °C.

Compound `CC(C)CC1CCCCC1` registered a melting point of -95 °C. In the case of `O=C1C=C2C(=CCOC2O)O1` (stereo not given), the melting point was 111 °C. In turn, `Cc1cc([N+](=O)[O-])cc(C)c1O` had a melting point of 164 to 169 °C. With `CS(=O)(=O)c1ccc(C#N)cc1`, the melting point lay within 137 to 142 °C. For `O=C1CCc2cc3c(cc2N1)NCCC3` the value was 235 °C; for `FC(F)(F)c1ccc(N2CCOCC2)c(CCl)c1`, 52 to 54 °C; for `COC(=O)c1cccc(C(=O)OC)n1`, 123 °C. The compound `N#CCc1ccc(OS(=O)(=O)c2cc(Cl)cc(Cl)c2)cc1` displayed a melting point of 81 to 83 °C.

As for `CCOP(=S)(OCC)SCCSCC`, the melting point is -25 °C.

Compound `CC(C)(C)c1nc2ccccc2[nH]1` registered a melting point of 320 °C. For `SC1=NC2(CCCCC2)NN1c1ccccc1` the value was 146 to 149 °C.

In the case of `CC(C)(C)OC(=O)N1CCC(c2nc(C(=O)O)cs2)CC1`, the melting point is 162 to 166 °C. For `C=Cc1ccccc1[N+](=O)[O-]` the value was 13 °C; for `CCOC(=O)/C(C#N)=C/c1ccc(-c2ccc([N+](=O)[O-])cc2)o1`, 238 °C.

Regarding `CC(C)NCC(O)COc1cccc2[nH]ccc12` (stereo not given), the melting point is 170 °C. The compound `CCCOCCO` returned a melting point of -70 °C. In turn, `O=c1c2ccccc2nc2n1CCC2O` (stereo not given) gave a melting point of 210 °C. For `Nc1nc(N)nc(-c2cc(Cl)ccc2Cl)n1` the value was 268 °C. Regarding `O=P(O)(O)OCC(O)CO` (stereo not given), the melting point was -25 °C. Turning to `Cn1cc(C(=O)Nc2ccc(F)cc2-c2ccc(Cl)c(Cl)c2)c(C(F)F)n1`, the melting point was found to be 147 °C.

Regarding `NC(CO)CO`, the melting point came to 54 °C.

Consider `CNC(=O)c1cc([N+](=O)[O-])cc([N+](=O)[O-])c1`, for which the melting point was 148 to 149 °C.

The compound `O=C(O)c1nccnc1C(=O)O` came in with a melting point of 188 °C.

Take `CC(C)=CCCC(C)C1=C(O)C(=O)C(C)=CC1=O` (stereo not given): the melting point was determined as 104 °C. For `O=C1NC(=O)C(=NNc2ccccc2[N+](=O)[O-])C(=O)N1` the value was 290 °C.

In turn, `Oc1ccc(O)c(O)c1` showed a melting point of 140 °C. For `CC(C=CC=C(C)C=CC1(O)C(C)(C)CCCC1(C)O)=CC=CC=C(C)C=CC(=O)O` (stereo not given) the value was 213 °C. Take `COc1cc(Cl)ccc1CO`: the melting point worked out at 47 °C. For `CSc1ncccc1C(=O)NC(CC(C)C)C(=O)O` (stereo not given) the value was 143 to 146 °C; for `Cc1c(C(C)OC(=O)CCC(=O)O)oc2ccc(C3=CC(=O)OC3)cc12` (stereo not given), 144 °C. For `Cc1cc(C(N)=O)no1` the value was 171 to 173 °C; for `COC(=O)C1=C(C)NC(C)=C(C(=O)On2nnc3ccccc32)[C@H]1c1ccc([N+](=O)[O-])cc1`, 217 °C; for `CC(=NNc1ccccc1)C(=O)c1cc(C(=O)C(C)=NNc2ccccc2)c([N+](=O)[O-])cc1[N+](=O)[O-]`, 234 °C.

In turn, `Cc1[nH]nc(C(F)(F)C(F)(F)C(F)(F)F)c1[N+](=O)[O-]` came in with a melting point of 97 to 98 °C.

The compound `O=c1oc2ccccc2cc1O` gave a melting point of 154 °C. For `C[Si](C)(C)C#Cc1ccccn1` the value was 42 to 45 °C; for `Cc1ccncc1C#N`, 43 °C; for `Nc1cccc(N)c1N`, 103 °C. In turn, `COC(=O)CCC(C)C1CCC2C3C(OC(C)=O)CC4CC(OC(C)=O)CCC4(C)C3CC(=O)C12C` (stereo not given) yielded a melting point of 178 °C. For `FC1(F)C(F)(F)C(F)(Cl)C1(F)Cl` (stereo not given) the value was -15 °C; for `CNC(=O)C(F)(F)F`, 51 °C; for `Fc1cccc(CBr)c1C(F)(F)F`, 42 °C. Turning to `CS(=O)(=O)c1cc(Cl)c(O)c(Cl)c1`, the melting point lay within 223 to 224 °C. In turn, `CC(=O)c1cccc(N=C=O)c1` displayed a melting point of 33 to 34 °C.

For `Nc1nnc(Sc2ncccc2[N+](=O)[O-])s1`, the melting point worked out at 216 °C.

On to `CC1OC(Oc2ccc([N+](=O)[O-])cc2)C(O)C(O)C1O` (stereo not given), for which the melting point lay within 191 to 192 °C. Compound `Cc1nc(N)nc(O)c1Br` showed a melting point of 244 to 246 °C.

The compound `O=[N+]([O-])c1ccc(O)c(-c2cc([N+](=O)[O-])ccc2O)c1` displayed a melting point of 186 °C. For `Cc1cc(C)c2c(-c3ccccc3)nn(-c3ccccc3)c2n1` the value was 114 °C; for `Nc1ccc(F)cc1N`, 86 to 88 °C; for `Cc1ccc(S(=O)(=O)NCCCC[C@H](N)C(=O)O)cc1`, 231 to 234 °C.

In turn, `Cn1c(/C(C#N)=C/c2cccc(O)c2)nc2ccccc21` registered a melting point of 240 °C. For `COc1ccc2c(c1OC)CN(C)CCc1cc3c(cc1C(=O)C2)OCO3` the value was 160 °C.

In the case of `CCCOc1ccc([N+](=O)[O-])cc1N`, the melting point came out at 49 °C. For `COc1ccc([P+]2([S-])Nn3c(nnc3C(F)(F)F)S2)cc1` (stereo not given) the value was 211 °C; for `OC1OCC(OCc2ccccc2)C(OCc2ccccc2)C1OCc1ccccc1` (stereo not given), 78 °C.

`Cn1c(/C(C#N)=N/Nc2cc(Cl)ccc2Cl)nc2ccccc21` registered a melting point of 245 °C.

Compound `COc1ccc2[nH]cc(CCN)c2c1` returned a melting point of 122 °C. For `CCOC(=O)C1C(c2ccc(F)cc2)C(C(=O)OCC)C(O)(C(F)(F)F)NC1(O)C(F)(F)F` (stereo not given) the value was 84 °C; for `O=C(Cl)c1cc(C(=O)Cl)c([N+](=O)[O-])cc1[N+](=O)[O-]`, 107 °C; for `CC1=C[C@@]2(C)O[C@@H](c3ccccc3)[C@@H]1C(C#N)(C#N)C2(C#N)C#N`, 170 to 171 °C. As to `CCOC(=O)C1C(=N)Oc2c(c(=O)oc3ccccc23)C1c1ccc(Br)cc1` (stereo not given), the melting point was found to be 192 °C. For `N#Cc1c(Cl)cccc1[N+](=O)[O-]` the value was 121 °C; for `NS(=O)(=O)c1cc(C(=O)OCOC(=O)c2ccccc2)c(NCc2ccco2)cc1Cl`, 179 °C; for `CCc1nc2ccccc2[nH]1`, 175 °C.

Compound `NCCCCCCNCCCCCCN` registered a melting point of 33 °C.

Compound `CC1CCc2ccccc2C1` (stereo not given) yielded a melting point of -43.1 °C. For `CC(=O)C=CC1C(C)=CCC(C)C1(C)C` (stereo not given) the value was less than 25 °C; for `CC1(C)CC(=O)c2cc(-c3ccccc3)n(-c3cccc(C(F)(F)F)c3)c2C1`, 145 to 147 °C.

On to `Cc1ccc(OCC(=O)NN)c2c1CCC2`, for which the melting point fell in the range of 145 to 156 °C. Take `Cc1nn2c(C)nnc2s1`: the melting point turned out to be 93 °C. `O=C1C(Cl)=C(Cl)C(=O)c2ccccc21`: the melting point was found to be 195 °C. For `COP(=S)(OC)SCC(=O)N(C)C=O` the value was 25.5 °C; for `N#C/C(=C/c1ccc(F)cc1)c1nc(-c2ccc(Cl)cc2)cs1`, 184 °C.
